Experimental findings from US8791156B2, “Polyacetylene compound, an extract containing the same and application thereof” (priority 2011, dated 2014) are described below.

The assay concerns mouse macrophage (RAW 264.7 cell). Description: Inhibition of NO production (nitrite by Greiss reaction) in LPS-treated mouse macrophages. Conditions: for IC50: Mus musculus. Type of assay: cell-based. An excerpt: This embodiment uses an analytical method to induce the macrophage of an inflaming mouse, with combination of Greiss reaction, to measure nitrites so as to indirectly measure the output of nitrogen monoxide (NO). As NO is a significant factor in the inflaming reaction, the output of NO can be used to evaluate the degree of inflaming reaction.
In brief, culture mouse macrophage (RAW 264.7 cell) pre-cultured in a 75 cm^2 culture dish in a 96 well plate at a density of 2×10^5 cells/well. The culture solution used is DMEM with 10% FBS, 100 units/mL penicillin and 100 μg/mL streptomycin. The culturing environment is 37° C. and 5% CO2 cell incubator. Let the normally attaching cells pass or not pass the LPS (1 μg/mL) processing with addition or no addition of the compounds obtained from Embodiment II. Then, use Greiss reaction to measure the concentration of nitrites in the upper clarified liquid of the culture solution after culturing the cells.
The experimental results are shown in FIG. 3, wherein, the ability of each compound to inhibit production of NO is shown through the method of IC50. IC50 represents 50% of the inhibiting concentration, i.e., […]. From the data in the figure, it is known that the compounds obtained from Embodiment II all manifest an effect of inhibiting production of NO, i.e., an anti-inflammation effect.

Where [1] appears, read: RAW 264.7 cells, LPS 1 μg/mL, FIG. 3.

Read-outs that look alike come from different tables or passages of the source.

What is called IC50 is the midpoint of a concentration-inhibition curve. `COc1cc(C)c(OC)c2c1OCO2` [Compound b, 1,4-dimethoxy-2,3-methylenedioxy-5-methylbenzene]: the 50% inhibitory concentration (IC50) is 20 to 35 µg/mL (RAW264.7, RAW 264.7 cells, LPS 1 μg/mL, nitrites by Greiss reaction, FIG. 3, printed in brackets as 'about', read-out: IC50 of inhibiting production of NO (approximate range)) and > 20 µg/mL (RAW264.7, RAW 264.7 cells, LPS 1 μg/mL, nitrites by Greiss reaction, FIG. 3, read-out: IC50 of inhibiting production of NO).
As to `C=C(C)C#Cc1c(OC)cc(OC)c(OC)c1C` [Compound d, Antrocamphin A], the “anti-inflammation ability (inhibiting production of NO), in words” value under setting [1] is listed as “excellent anti-inflammation ability”.
As for `C=C(C)C#Cc1c(C)c2c(c(OC)c1OC)OCO2` [Compound h, Antrocamphin C], the “anti-inflammation ability (inhibiting production of NO), in words” value under setting [1] was “excellent anti-inflammation ability”.
`C=C(CC[C@@H](C(=O)O)[C@H]1CC[C@@]2(C)C3=CC[C@H]4C(C)(C)[C@@H](O)CC[C@]4(C)C3=CC[C@]12C)C(C)C` [Compound m, Dehydroeburicoic acid]: the IC50 was > 20 µg/mL (RAW264.7, read-out: IC50 of inhibiting production of NO) and 20 to 35 µg/mL (RAW264.7, read-out: IC50 of inhibiting production of NO (approximate range)).
